Results taken from patent publication US6200966A, “Compositions for inhibiting airway wall inflammation” (Amrad Operations Pty. Ltd., priority 1996, dated 2001).
“Also recorded” adds a separate entry of the source.

Experiments:
[1] = tested on: human cultured airway smooth muscle cells; assay: Protein synthesis: [3H]-leucine incorporation; type: cell-based; conditions: for activity at 0.3 µM / activity at 1 µM / activity at 3 µM / activity at 10 µM: mean ± SEM
[2] = tested on: pig endometrial cell cultures; conditions: Zhang & Davis, 1992; cited from earlier work
smooth muscle = conditions: Goyache et al., 1995; cited from earlier work
horseradish peroxidase = assay: Oxidation of tetramethyl benzidine by purified horseradish peroxidase; type: biochemical; conditions: 10 μM
[3] = tested on: cultured smooth muscle cells from rabbit aorta; conditions: Nishigaki et al., 1995; cited from earlier work
[4] = tested on: guinea-pig peritoneal macrophages; assay: Prostacyclin (6-oxo-PGF1α) release in peritoneal macrophages; type: cell-based
Description: Cells were incubated with stimuli including the chemotactic tripeptide, formyl methiony leucyl Phenylalanine (fMLP, 100 nM), Zymosan (400 μg/ml) or phorbol myristate acetate (PMA, 100 nM) for 30 min in the presence or absence of 2-methoxyestradiol (10 μM) added 15 min before the stimuli. […] All individual incubations were carried out in duplicate and experiments were carried out in macrophages from 5 guinea-pigs.

adherent monocytes = assay: Tetramethyl benzidine oxidation in adherent monocytes; type: cell-based, human; conditions: PMA (1 μM) or zymosan (400 μg/ml); 10 μM
[5] = tested on: Human polymorphonuclear leukocytes; assay: Phagocytosis: radioiodination of zymosan particles (125I uptake); type: cell-based
Description: Data are expressed as percentage of ^125 I incorporation into glass
fiber-filterable material. Assays were carried out using 1 ×

oestrogen receptors = conditions: Merriam et al, 1980; cited from earlier work
[6] = Homo sapiens, 5HT (10 nM)-stimulated cells
[7] = Homo sapiens, unstimulated cells

In the case of `COc1cc2c(cc1O)CC[C@@H]1[C@@H]2CC[C@]2(C)[C@@H](O)CC[C@@H]12` [2-methoxyestradiol, 1,3,5[10]-estratriene-2,3,17-triol 2-methylether], the “[3H]-leucine incorporation at 10 μM” value ([1]; 10 μM, thrombin or bFGF) is reported as “no significant inhibitory effect”, the activity at 0.3 µM [1, 6] is reported as 91 ± 5% and the activity at 1 µM [1, 6] is reported as 62 ± 2%. The activity at 3 µM [1, 6] was 56 ± 2%, the activity at 10 µM [1, 6] was 51 ± 6% and the activity at 0.3 µM [1, 7] was 135 ± 3%. The activity at 1 µM [1, 7] was 84 ± 4%, the activity at 3 µM [1, 7] was 77 ± 3% and the activity at 10 µM [1, 7] was 113 ± 9%. For the same compound, the inhibition at 3 µM ([1]; Homo sapiens, at 3 μM, thrombin, FCS 1% or bFGF, read-out: maximum percentage reduction of [3H]-leucine incorporation) was about 30%, the minimal effective concentration ([1]; Homo sapiens, thrombin (0.3 U/ml), FCS (1% v/v) or bFGF (300 pM), 48 h, read-out: threshold concentration for inhibition of [3H]-leucine incorporation) was 1 µM and the “[3H]-leucine incorporation, compound alone, 10 μM” value ([1]; unstimulated, 10 μM) was “no effect”. For the same compound, the “[3H]-leucine incorporation, compound alone, 1 and 3 μM” value ([1]; unstimulated, 1 and 3 μM) was “small inhibitory effects”, the “synthesis of PGF2α” value [2] was “inhibits the synthesis of PGF2α” and the “calcium influx into smooth muscle” value (smooth muscle) was “decrease calcium influx”. For the same compound, the “oxidation of tetramethyl benzidine by purified horseradish peroxidase” value (horseradish peroxidase) was “lack of effect; also recorded: no effect”, the “proliferation of rabbit aorta smooth muscle cells” value [3] was “anti-proliferative effects” and the inhibition at 10 µM ([4]; Cavia porcellus, Peritoneal macrophage, 0.5 h, PMA (100 nM), read-out: reduction of 6-oxo-PGF1α / prostacyclin response, PMA) was 50%. For the same compound, the “6-oxo-PGF1α / prostacyclin generation, fMLP” value ([4]; fMLP (100 nM), 10 μM) was “completely blocked”, the “oxidation of tetramethyl benzidine in adherent monocytes” value (adherent monocytes) was “unaffected” and the 125I uptake ([5]; 3 μM, PHS (pooled human serum), control (basal 2.13)) was 1.87 percentage of ^125 I incorpora. For the same compound, the 125I uptake ([5]; 3 μM, PHS, zymosan (basal 4.33)) was 3.27 percentage of ^125 I incorpora, the 125I uptake ([5]; 3 μM, no PHS, control (basal 1.80)) was 1.97 percentage of ^125 I incorpora and the 125I uptake ([5]; 3 μM, no PHS, zymosan (basal 2.83)) was 1.97 percentage of ^125 I incorpora. The 125I uptake ([5]; 10 μM, PHS, control (basal 2.13)) was 1.75 percentage of ^125 I incorpora, the 125I uptake ([5]; 10 μM, PHS, zymosan (basal 4.33)) was 1.65 percentage of ^125 I incorpora and the 125I uptake ([5]; 10 μM, no PHS, control (basal 1.80)) was 2.05 percentage of ^125 I incorpora. The 125I uptake ([5]; 10 μM, no PHS, zymosan (basal 2.83)) was 1.80 percentage of ^125 I incorpora, the “radioiodination of zymosan particles by PMN (phagocytosis)” value ([5]; 3 and 10 μM) was “significant effects being observed at both 3 and 10 μM” and the “phagocytic activity of polymorphonuclear leukocytes” value ([5]; human peripheral blood) was “reduction of phagocytic activity”. The “affinity for oestrogen receptors” value (oestrogen receptors) was “not to have significant affinity”.
